Assay results published in patent publication US6858591B2, “Antibiotic AA 896 analogs” (Wyeth Holdings Corporation, priority 2001, dated 2005).
In brackets after ≈: the same amount, converted by molar mass.

How the values were obtained:
Test in all cases: In vitro MIC, broth dilution
Type in all cases: cell-based
E. coli GC 4559 = conditions: Escherichia coli, GC4559; E. coli GC 4559; read-out: MIC
P. aeruginosa GC 2214 = conditions: Pseudomonas aeruginosa, GC2214; P. aeruginosa GC 2214; read-out: MIC
M. morganii GC 4531 = conditions: Morganella morganii, GC4531; M. morganii GC 4531; read-out: MIC
S. aureus GC 1131 = conditions: Staphylococcus aureus, GC1131; S. aureus GC 1131; read-out: MIC
Experimental: (§1) The minimum inhibitory concentration (MIC), the lowest concentration of the antibiotic which inhibits growth of the test organism, is determined by the broth dilution method using Muller-Hinton II […] (Baltimore Biological Laboratories) following the recommendations of National Committee for Clinical Laboratory Standards. [Reference for the Methods for dilution antimicrobial susceptibility tests for bacteria that grow aerobically: National Committee for Clinical Laboratory Standards, 1997. Approved standard M7-A National Committee for Clinical Laboratory Standards, Wayne, Pa.] An inoculum level of 5×10^5 CFU/ml, and a range of antibiotic concentrations (64-0.06 μg/ml) is used. The MIC is determined after the microtiter plates are incubated for 18 hours at 35° C. in an ambient air incubator. The test organisms comprise a spectrum of gram-positive bacteria including Staphylococcus sp., Streptococcus sp. and Enterococcus sp. These organisms include recent clinical isolates that are resistant to methicillin, penicillin and vancomycin.

E. faecalis GC 2242 = conditions: Enterococcus faecalis, GC2242; E. faecalis GC 2242; read-out: MIC
Experimental: as §1

E. faecalis GC 4555 = conditions: Enterococcus faecalis, GC4555; E. faecalis GC 4555; read-out: MIC
Experimental: as §1

CNS GC 4538 = conditions: CNS GC 4538; read-out: MIC
Experimental: as §1

CNS GC 4537 = conditions: CNS GC 4537; read-out: MIC
Experimental: as §1

S. aureus GC 4536 = conditions: Staphylococcus aureus, GC4536; S. aureus GC 4536; read-out: MIC
Experimental: as §1

CNS GC 4547 = conditions: CNS GC 4547; read-out: MIC
Experimental: as §1

S. aureus GC 2216 = conditions: Staphylococcus aureus, GC2216; S. aureus GC 2216; read-out: MIC
Experimental: as §1

E. faecalis GC 842 = conditions: Enterococcus faecalis, GC842; E. faecalis GC 842; read-out: MIC
Experimental: as §1

E. coli GC 3226 = conditions: Escherichia coli, GC3226; E. coli GC 3226; read-out: MIC
E. cloacae GC 3783 = conditions: Enterobacter cloacae, GC3783; E. cloacae GC 3783; read-out: MIC
C. albicans GC 3066 = conditions: Candida albicans, GC3066; C. albicans GC 3066; read-out: MIC
K. pneumoniae GC 4534 = conditions: Klebsiella pneumoniae, GC4534; K. pneumoniae GC 4534; read-out: MIC
E. coli GC 2203 = conditions: Escherichia coli, GC2203; E. coli GC 2203; read-out: MIC
E. coli GC 4560 = conditions: Escherichia coli, GC4560; E. coli GC 4560; read-out: MIC
P. aeruginosa GC 4532 = conditions: Pseudomonas aeruginosa, GC4532; P. aeruginosa GC 4532; read-out: MIC
S. marcescens GC 4077 = conditions: Serratia marcescens, GC4077; S. marcescens GC 4077; read-out: MIC

Compound	MIC (E. coli GC 4559) [µg/mL]	MIC (P. aeruginosa GC 2214) [µg/mL]	MIC (M. morganii GC 4531) [µg/mL]	MIC (S. aureus GC 1131) [µg/mL]	MIC (E. faecalis GC 2242) [µg/mL]	MIC (E. faecalis GC 4555) [µg/mL]	MIC (CNS GC 4538) [µg/mL]	MIC (CNS GC 4537) [µg/mL]	MIC (S. aureus GC 4536) [µg/mL]	MIC (CNS GC 4547) [µg/mL]	MIC (S. aureus GC 2216) [µg/mL]	MIC (E. faecalis GC 842) [µg/mL]	MIC (E. coli GC 3226) [µg/mL]	MIC (E. cloacae GC 3783) [µg/mL]	MIC (C. albicans GC 3066) [µg/mL]	MIC (K. pneumoniae GC 4534) [µg/mL]	MIC (E. coli GC 2203) [µg/mL]	MIC (E. coli GC 4560) [µg/mL]	MIC (P. aeruginosa GC 4532) [µg/mL]	MIC (S. marcescens GC 4077) [µg/mL]
COc1ccc(Cn2c(=O)ccn([C@@H]3OC([C@H](O)[C@H](NCCCNC(=O)[C@@H](N)Cc4ccccc4)C(=O)OC(C)(C)C)[C@@H](O[Si](C)(C)C(C)(C)C)[C@H]3O[Si](C)(C)C(C)(C)C)c2=O)cc1 (stereo partly drawn) [Example 13, tert-Butyl (2S,3R)-2-[(3-{[(2S)-2-amino-3-phenylpropanoyl]amino}propyl)amino]-3-[(3R,4R,5R)-3,4-bis{[tert-butyl(dimethyl)silyl]oxy}-5-(3-(4-methoxybenzyl)-2,4-dioxo-3,4-dihydro-1(2H)-pyrimidinyl)tetrahydro-2-furanyl]-3-hydroxypropanoate]	> 128	> 128	> 128	> 128	16 (≈ 17.3 µM)	> 128	> 128	> 128	> 128	> 128	> 128	128 (≈ 138 µM)	> 128	> 128	> 128	> 128	> 128	> 128	> 128	> 128
COc1ccc(Cn2c(=O)ccn([C@@H]3OC([C@H](O)[C@H](NCCCNC(=O)[C@H](C)NC(=O)OCc4ccccc4)C(=O)OC(C)(C)C)[C@@H](O[Si](C)(C)C(C)(C)C)[C@H]3O[Si](C)(C)C(C)(C)C)c2=O)cc1 (stereo partly drawn) [Example 14, tert-Butyl (5S,12S)-12-[(R)-[(3R,4R,5R)-3,4-bis{[tert-butyl(dimethyl)silyl]oxy}-5-(3-(4-methoxybenzyl)-2,4-dioxo-3,4-dihydro-1(2H)-pyrimidinyl)tetrahydro-2-furanyl](hydroxy)methyl]-5-methyl-3,6-dioxo-1-phenyl-2-oxa-4,7,11-triazatridecan-13-oate]	> 128	128 (≈ 130 µM)	128 (≈ 130 µM)	> 128	128 (≈ 130 µM)	128 (≈ 130 µM)	> 128	> 128	> 128	128 (≈ 130 µM)	> 128	> 128	> 128	> 128	128 (≈ 130 µM)	> 128	> 128	128 (≈ 130 µM)	128 (≈ 130 µM)	> 128
COc1ccc(Cn2c(=O)ccn([C@@H]3OC([C@H](O)[C@H](NCCCNC(=O)[C@H](C)N)C(=O)OC(C)(C)C)[C@@H](O[Si](C)(C)C(C)(C)C)[C@H]3O[Si](C)(C)C(C)(C)C)c2=O)cc1 (stereo partly drawn) [Example 15, tert-Butyl (2S,3R)-2-[(3-{[(2S)-2-aminopropanoyl]amino}propyl)amino]-3-[(3R,4R,5R)-3,4-bis{[tert-butyl(dimethyl)silyl]oxy}-5-(3-(4-methoxybenzyl)-2,4-dioxo-3,4-dihydro-1(2H)-pyrimidinyl)tetrahydro-2-furanyl]-3-hydroxypropanoate]	> 128	128 (≈ 151 µM)	128 (≈ 151 µM)	4 (≈ 4.7 µM)	4 (≈ 4.7 µM)	4 (≈ 4.7 µM)	4 (≈ 4.7 µM)	4 (≈ 4.7 µM)	4 (≈ 4.7 µM)	8 (≈ 9.41 µM)	4 (≈ 4.7 µM)	4 (≈ 4.7 µM)	> 128	> 128	64 (≈ 75.3 µM)	> 128	> 128	8 (≈ 9.41 µM)	> 128	> 128
